Counter-ions that a name gives are not always drawn.
These molecules were tested against T1, KRAS-G12D and SOS1 (Homo sapiens, UniProt P01116, G12D) (assay: Inhibition of KRAS-G12D/SOS1 binding (Cisbio binding kit, 665/615 ratio), Effect Embodiment A). Conditions: read-out: GTP-KRAS-G12D:SOS1 IC50.
T1 construct: purchased
Outline: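 Test compounds were serially diluted 3-fold from the storage solution over 11 points and dispensed in duplicate wells at 1% final DMSO.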

T1 sequence (P01116 1-188 isoform P01116-2 G12D): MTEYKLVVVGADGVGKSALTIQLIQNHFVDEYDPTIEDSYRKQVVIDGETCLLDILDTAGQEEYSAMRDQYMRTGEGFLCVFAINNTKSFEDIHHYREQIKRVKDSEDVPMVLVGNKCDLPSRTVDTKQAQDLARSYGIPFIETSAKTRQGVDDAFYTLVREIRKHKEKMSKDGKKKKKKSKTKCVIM

IC50 | SMILES
1850 nM | C#Cc1cccc2cc(O)cc(-c3c(F)cc4c(N5CC6CCC(C5)N6)nc(OCCCN5C6CCC5COC6)nc4c3F)c12 (single isomer, unassigned) [Compound 273b, 4-((7R or 7S)-2-(3-(3-oxa-8-azabicyclo[3.2.1]octan-8-yl)propoxy)-4-((1R,5S)-3,8-diazabicyclo[3.2.1]octan-3-yl)-6,8-difluoroquinazolin-7-yl)-5-ethynylnaphthalen-2-ol diformate]
2480 nM | N#Cc1cccc2cc(O)cc(-c3c(F)cc4c(N5CC6CCC(C5)N6)nc(OCCCN5C6CCC5COC6)nc4c3F)c12 (single isomer, unassigned) [Compound 278b, 8-((7R or 7S)-2-(3-(3-oxa-8-azabicyclo[3.2.1]octan-8-yl)propoxy)-4-((1R,5S)-3,8-diazabicyclo[3.2.1]octan-3-yl)-6,8-difluoroquinazolin-7-yl)-6-hydroxy-1-naphthonitrile diformate]
1390 nM | C#Cc1c(F)ccc2cccc(-c3c(F)cc4c(N5CC6CCC(C5)N6)nc(OC[C@@]56CCCN5C[C@H](F)C6)nc4c3F)c12 (single isomer, unassigned) [Compound 279b, (R or S)-4-((1R,5S)-3,8-diazacyclo[3.2.1]octyl-3-yl)-7-(8-ethynyl-7-fluoronaphthalen-1-yl)-6,8-difluoro-2-((2R,7aS)-2-fluorotetrahydro-1H-pyrrolidin-7a(5H)-yl)methoxy)quinazoline formate]
310 nM | CCc1c(F)ccc2cccc(-c3c(F)cc4c(N5CC6CCC(C5)N6)nc(OC[C@@]56CCCN5C[C@H](F)C6)nc4c3F)c12 (single isomer, unassigned) [Compound 280b, 4-((1R,5S)-3,8-diazacyclo[3.2.1]octan-3-yl)-7-((R or S)-8-ethyl-7-fluoronaphthalen-1-yl)-6,8-difluoro-2-((2R,7aS)-2-fluorotetrahydro-1H-pyrrolidin-7a(5H)-yl)methoxy)quinazoline dihydrochloride]
449 nM | CCc1cccc2cccc(-c3c(F)cc4c(N5CC6CCC(C5)N6)nc(OC[C@@]56CCCN5C[C@H](F)C6)nc4c3F)c12 (single isomer, unassigned) [Compound 281b, (R or S)-4-((1R,5S)-3,8-diazacyclo[3.2.1]octan-3-yl)-7-(8-ethylnaphthalen-1-yl)-6,8-difluoro-2-((2R,7aS)-2-fluorotetrahydro-1H-pyrrolin-7a(5H)-yl)methoxy)quinazoline dihydrochloride]
5070 nM | CCc1cccc2cc(O)cc(-c3c(F)cc4c(N5CC6CCC(C5)N6)nc(OCCCN5CCOC[C@H]5C)nc4c3F)c12 (single isomer, unassigned) [Compound 282b, (R or S)-4-(4-((1R,5S)-3,8-diazacyclo[3.2.1]octan-3-yl)-6,8-difluoro-2-(3-((R)-3-methylmorpholinyl)propoxy)quinazolin-7-yl)-5-ethylnaphthalen-2-ol dihydrochloride]
9180 nM | CCc1cccc2cc(O)cc(-c3c(F)cc4c(N5CC6CCC(C5)N6)nc(OCCCN5C[C@@H](C)O[C@@H](C)C5)nc4c3F)c12 (single isomer, unassigned) [Compound 283b, (R or S)-4-(4-((1R,5S)-3,8-diazacyclo[3.2.1]octan-3-yl)-2-(3-((2S,6R)-2,6-dimethylmorpholinyl)propoxy)-6,8-difluoroquinazolin-7-yl)-5-ethylnaphthalen-2-ol dihydrochloride]
2010 nM | CCc1cccc2cc(O)cc(-c3c(F)cc4c(N5CC6CCC(C5)N6)nc(OC[C@H](C)CN5C6CCC5COC6)nc4c3F)c12 (single isomer, unassigned) [Compound 284b, (4R or 4S)-4-(2-((2R)-3-(3-oxa-8-azabicyclo[3.2.1]octan-8-yl)-2-methylpropoxy)-4-((1R,5S)-3,8-diazabicyclo[3.2.1]octan-3-yl)-6,8-difluoroquinazolin-7-yl)-5-ethylnaphthalen-2-o1 dihydrochloride]
